Laboratory results from patent US6627659B1, “Methods of decreasing the effects of oxidative stress using N-acetylcysteine” (Zambon Group S.p.A., priority 1999, dated 2003).

Legend:
[1] = test system: patients undergoing dialysis; conditions: oral administration; Atherosclerosis 120 (1996) 241-244; cited from earlier work
[2] = test system: NADPH oxidase activity in neutrophils; assay: AOPP-HSA-induced NADPH oxidase activity in neutrophils, lucigenin chemiluminescence; format: cell-based; conditions: neutrophils preincubated with various concentrations of NAC, AOPP-HSA 2 mg/ml, FIG. 2A
Description: (§1) Human serum albumin (HSA) was exposed to HOCl at a molar HSA/HOCl molar ratio of 1/60. The AOPP-HSA preparation was incubated 30 minutes at room temperature and then dialysed overnight against PBS. Neutrophils from the Ficoll gradient pellet were separated from erythrocytes by sedimentation in dextran. Residual erythrocytes were lysed by treating the cell pellet with lysis buffer containing ammonium chloride. Purified neutrophils were resuspended at a concentration of 5×10^6/ml in phenol-red free HBSS at pH 7.4 and preincubated with medium alone or various concentrations of NAC. The capacity of AOPP-HSA to activate monocyte or neutrophil oxygenation activities was measured by chemiluminescence using dimethylbiacridinium (lucigenin) for NADH oxidase activity or luminol for myeloperoxidase activity as chemoluminogenic substrates. One hundred microliters of monocyte suspension (2×10^5/ml) was automatically injected into the luminometer tubes containing 100 μl of HBSS (basal activity), or the tested preparations including: native HSA or AOPP-HSA at 2 mg/ml. Chemiluminescence production was measured in duplicate and luminescence intensity was expressed in counts/min integrated over a 40 minutes period.

[3] = test system: myeloperoxidase activity in neutrophils; assay: AOPP-HSA-induced myeloperoxidase activity in neutrophils, luminol chemiluminescence; format: cell-based; conditions: neutrophils preincubated with various concentrations of NAC, AOPP-HSA 2 mg/ml, FIG. 1A
Description: as §1

[4] = test system: myeloperoxidase activity in monocytes; assay: AOPP-HSA-induced myeloperoxidase activity in monocytes, luminol chemiluminescence; format: cell-based; conditions: AOPP-HSA 2 mg/ml, counts/min over 40 minutes, FIG. 1B
Description: (§2) Human serum albumin (HSA) was exposed to HOCl at a molar HSA/HOCl molar ratio of 1/60. The AOPP-HSA preparation was incubated 30 minutes at room temperature and then dialysed overnight against PBS. Isolation of monocytes was performed by an indirect magnetic labelling system which allows the magnetic depletion of non monocytes i.e., T cells, B cells, NK cells, dendritic cells and basophils from a mononuclear cell suspension (obtained by blood sedimentation on a Ficoll gradient) using a cocktail of CD3, CD7, CD19, CD45RA, CD56 and anti-IgE antibodies. Purified monocytes were resuspended at a concentration of 2.5×10^6/ml in phenol-red free Hank's balanced salt solution (HBSS). The capacity of AOPP-HSA to activate monocyte or neutrophil oxygenation activities was measured by chemiluminescence using dimethylbiacridinium (lucigenin) for NADH oxidase activity or luminol for myeloperoxidase activity as chemoluminogenic substrates. One hundred microliters of monocyte suspension (2×10^5/ml) was automatically injected into the luminometer tubes containing 100 μl of HBSS (basal activity), or the tested preparations including: native HSA or AOPP-HSA at 2 mg/ml. Chemiluminescence production was measured in duplicate and luminescence intensity was expressed in counts/min integrated over a 40 minutes period.

[5] = test system: NADPH oxidase activity in monocytes; assay: AOPP-HSA-induced NADPH oxidase activity in monocytes, lucigenin chemiluminescence; format: cell-based; conditions: AOPP-HSA 2 mg/ml, counts/min over 40 minutes, FIG. 2B
Description: as §2

## CC(=O)N[C@@H](CS)C(=O)O [NAC, N-acetylcysteine]
[1]
  efficacy in the treatment of patients undergoing dialysis: without efficacy
[2]
  inhibition of NADPH oxidase activity triggered by AOPP-HSA: dose-dependent inhibition
[3]
  inhibition of myeloperoxidase activity triggered by AOPP-HSA: dose-dependent inhibition
[4]
  inhibition of myeloperoxidase activity triggered by AOPP-HSA: dose-dependent inhibition
[5]
  inhibition of NADPH oxidase activity triggered by AOPP-HSA: dose-dependent inhibition
